Assay results as given in PMC6825211 (Nature Communications, 2019).
Several values for one entry are separate records, joined by “and”; a condition that tells them apart may be missing. Equal entries are not always repeated.

Columns and labels:
MLD–STZ C57BL/6J mice [1] = experiment: MLD–STZ model: random fed blood glucose; format: in vivo, mouse; set-up: AUC glycemia: unit not given here
Method: (§1) C57Bl/6J mice were injected with 40 mg/kg streptozotocin or citrate buffer for 5 consecutive days. […] In d, basal glucose values were normalized to 100%. e Insulin secretion measured from retro-orbital blood draw during an ipGTT measured before (0 min) and 15 min after glucose injection; data are expressed as the ratio of secreted insulin at 15 min/0 min (stimulatory index). f The ratio of secreted insulin and glucose is calculated at fed state. g–i Mice were killed at day 35. g β-cell mass (given as percentage of the whole pancreatic section from ten sections spanning the width of the pancreas) and quantitative analyses from triple staining for h TUNEL or i Ki67, insulin, and DAPI expressed as percentage of TUNEL- or Ki67-positive β-cells ±SEM. An average number of 2331 (h), or 26369 (i) β-cells were counted. n = 9 mice/group for (a); n = 4–12 for (b); n = 5–15 for (c) and (d); n = 12–19 for (e); n = 8–14 for (f); n = 4–9 for (g); n = 4–11 for (h); and n = 6–11 mice/groupfor (i); all from three independent experiments).

MLD–STZ C57BL/6J mice [2] = experiment: MLD–STZ model: intraperitoneal glucose tolerance test (ipGTT); format: in vivo, mouse; set-up: ipGTT glucose / AUC ipGTT: unit not given here
Method: as §1
For intraperitoneal glucose tolerance tests, mice were fasted 12 h overnight and injected i.p. with glucose (40%; B.Braun, Melsungen, Germany) at a dose of 1 g/kg body weight. Blood samples were obtained at time points 0, 15, 30, 60, 90, and 120 min for glucose measurements by using a Glucometer. For i.p. insulin tolerance tests, mice were injected with 0.75 U/kg body weight recombinant human insulin (Novolin, Novo Nordisk) after 4–5-h fasting, and glucose concentration was determined with the Glucometer. Insulin secretion was measured before (0 min) and after (15 and 30 min) i.p. injection of glucose (2 g/kg) and measured by using ultrasensitive mouse Elisa kit (ALPCO Diagnostics, Salem, NH).

[3] = system: obese diabetic Lepr db/db mice; experiment: db/db model: β-cell mass; format: in vivo, mouse; conditions: for BCM: dbdb mice
Description: (§2) Data are representative of six mice per group (n = 6 for (a–f)). g–j Mice were killed at day 31. g β-cell mass (given as percentage of the whole pancreatic section from ten sections spanning the width of the pancreas; n = 5 mice/group) and quantitative analyses from triple stainings for (h) TUNEL, (i) Ki67, (j) pHH3, and (k) nuclear PDX1 expression, insulin, and DAPI expressed as percentage of TUNEL-, Ki67-, pHH3-, or nuclear PDX1-positive β-cells ± SEM. An average number of 13667 (h), 5937 (i), 7108 (j), or 4330 (k) β-cells were counted from n = 3–5 (h, i, k) or n = 5–6 (j) mice/group.
For morphometric data, ten sections (spanning the width of the pancreas) per mouse were analyzed. Pancreatic tissue area and insulin-positive area were determined by computer-assisted measurements by using a Nikon MEA53200 (Nikon GmbH, Dusseldorf, Germany) microscope, and images were acquired by using NIS-Elements software (Nikon). β-cell mass was obtained by multiplying the β-cell fraction by the weight of the pancreas.

[4] = system: obese diabetic Lepr db/db mice; experiment: db/db model: β-cell apoptosis (TUNEL); format: in vivo, mouse; conditions: for TUNEL%/ mouse: dbdb mice
Description: as §2
Mouse pancreases were dissected and fixed in 4% formaldehyde at 4 °C for 12 h before embedding in paraffin[62]. Two-four-micrometer sections were deparaffinized, rehydrated, and incubated overnight at 4 °C with anti-PDX-1 (Abcam; #47267), anti-Glut2 (Chemicon; #07-1402), anti-Ki67 (Dako; #M7249), anti-phospho-Histone H3 (Ser10; Merck #06-570), and anti-NKX6.1 (DSHB, University of Iowa #F55A12[66]) in combination with TSA (Invitrogen #T30955), or for 2 h at room temperature with anti-insulin (Dako; A0546) antibodies (all at a dilution of 1:100, except anti-PDX-1, which was diluted 1:400) followed by fluorescein isothiocyanate (FITC)- or Cy3-conjugated secondary antibodies (Jackson ImmunoResearch Laboratories, West Grove, PA). Slides were mounted with Vectashield with 4′6-diamidino-2-phenylindole (DAPI) (Vector Labs). β-cell apoptosis was analyzed by the terminal deoxynucleotidyl transferase-mediated dUTP nick-end labeling (TUNEL) technique according to the manufacturer’s instructions (In Situ Cell Death Detection Kit, TMR red; Roche) and double stained for insulin. Fluorescence was analyzed by using a Nikon MEA53200 (Nikon GmbH, Dusseldorf, Germany) microscope, and images were acquired by using NIS-Elements software (Nikon).

DYRK1A = DYRK1A (Homo sapiens, UniProt Q13627); experiment: Nanosyn kinase profiling, mobility shift assay; conditions: read-out: % inhibition by neratinib
PRKD2 = PRKD2 (Homo sapiens, UniProt Q9BZL6); experiment: Nanosyn kinase profiling, mobility shift assay; conditions: read-out: % inhibition by neratinib
PRKD2, sequence (Q9BZL6 whole entry): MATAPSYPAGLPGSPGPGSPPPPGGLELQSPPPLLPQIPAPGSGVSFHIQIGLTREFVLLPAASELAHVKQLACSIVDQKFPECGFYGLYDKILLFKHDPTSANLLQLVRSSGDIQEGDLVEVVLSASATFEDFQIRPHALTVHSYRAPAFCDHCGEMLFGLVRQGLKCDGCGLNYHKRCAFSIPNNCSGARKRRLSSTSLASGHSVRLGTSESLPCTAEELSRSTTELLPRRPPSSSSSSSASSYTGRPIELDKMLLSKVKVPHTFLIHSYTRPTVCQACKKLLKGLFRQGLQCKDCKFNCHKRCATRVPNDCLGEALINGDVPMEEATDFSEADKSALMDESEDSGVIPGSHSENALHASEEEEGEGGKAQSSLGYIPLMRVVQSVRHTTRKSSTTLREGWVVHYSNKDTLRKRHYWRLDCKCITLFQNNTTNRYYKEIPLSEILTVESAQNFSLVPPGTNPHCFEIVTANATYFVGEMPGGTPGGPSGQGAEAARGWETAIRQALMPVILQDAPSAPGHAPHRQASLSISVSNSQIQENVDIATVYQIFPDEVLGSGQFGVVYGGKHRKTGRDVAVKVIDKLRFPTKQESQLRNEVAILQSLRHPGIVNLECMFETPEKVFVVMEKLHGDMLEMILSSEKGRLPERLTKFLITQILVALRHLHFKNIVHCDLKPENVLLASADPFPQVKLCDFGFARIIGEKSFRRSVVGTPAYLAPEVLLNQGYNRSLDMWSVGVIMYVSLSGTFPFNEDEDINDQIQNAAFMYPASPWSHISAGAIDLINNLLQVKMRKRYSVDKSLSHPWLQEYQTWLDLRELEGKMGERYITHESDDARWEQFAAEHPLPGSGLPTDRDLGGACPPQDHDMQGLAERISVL

SRC = SRC (Homo sapiens, UniProt P12931); experiment: Nanosyn kinase profiling, mobility shift assay; conditions: read-out: % inhibition by neratinib
SRC, sequence (P12931 whole entry, species assumed): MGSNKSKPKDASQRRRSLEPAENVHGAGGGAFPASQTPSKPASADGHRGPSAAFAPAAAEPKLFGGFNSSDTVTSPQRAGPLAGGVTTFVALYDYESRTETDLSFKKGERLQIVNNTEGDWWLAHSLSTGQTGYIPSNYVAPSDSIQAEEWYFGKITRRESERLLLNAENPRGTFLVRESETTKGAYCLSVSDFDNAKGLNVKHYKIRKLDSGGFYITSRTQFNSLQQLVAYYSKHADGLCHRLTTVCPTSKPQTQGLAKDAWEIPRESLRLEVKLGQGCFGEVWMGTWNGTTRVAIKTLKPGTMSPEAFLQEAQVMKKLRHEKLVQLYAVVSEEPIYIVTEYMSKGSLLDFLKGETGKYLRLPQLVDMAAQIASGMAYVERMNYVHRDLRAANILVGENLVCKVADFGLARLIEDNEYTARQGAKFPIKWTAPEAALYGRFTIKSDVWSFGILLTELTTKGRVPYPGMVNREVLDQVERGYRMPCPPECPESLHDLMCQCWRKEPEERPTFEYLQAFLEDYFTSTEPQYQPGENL

In the case of `CCOc1cc2ncc(C#N)c(Nc3ccc(OCc4ccccn4)c(Cl)c3)c2cc1NC(=O)/C=C/CN(C)C` [neratinib], the “glycemia in nondiabetic control mice” value (MLD–STZ C57BL/6J mice [1]; 5 mg/kg i.p. daily) is reported as “no effect on glycemia”, the “glucose levels in STZ mice” value (MLD–STZ C57BL/6J mice [1]; 5 mg/kg i.p. daily, 35 days) is reported as “lower glucose levels during the entire 35 days” and the glycemia (MLD–STZ C57BL/6J mice [1]; NeraCtr (no STZ, neratinib 5 mg/kg i.p. daily), day 0, individual mice) is reported as 136 mg/dL and 120 mg/dL and 165 mg/dL and 122 mg/dL and 87 mg/dL and 80 mg/dL and 78 mg/dL and 130 mg/dL. The AUC glycemia (MLD–STZ C57BL/6J mice [1]; NeraCtr, Mean) was 4215.5, the glycemia (MLD–STZ C57BL/6J mice [1]; NeraCtr, day 3, individual mice) was 139 mg/dL and 103 mg/dL and 119 mg/dL and 117 mg/dL and 104 mg/dL and 116 mg/dL and 114 mg/dL and 149 mg/dL and 112 mg/dL and the glycemia (MLD–STZ C57BL/6J mice [1]; NeraCtr, day 7, individual mice) was 100 mg/dL and 134 mg/dL and 130 mg/dL and 92 mg/dL and 120 mg/dL and 106 mg/dL and 114 mg/dL and 125 mg/dL and 111 mg/dL. The glycemia (MLD–STZ C57BL/6J mice [1]; NeraCtr, day 9, individual mice) was 108 mg/dL and 93 mg/dL and 122 mg/dL and 89 mg/dL and 96 mg/dL and 109 mg/dL and 111 mg/dL and 90 mg/dL, the glycemia (MLD–STZ C57BL/6J mice [1]; NeraCtr, day 12, individual mice) was 138 mg/dL and 112 mg/dL and 125 mg/dL and 100 mg/dL and 117 mg/dL and 105 mg/dL and 86 mg/dL and 133 mg/dL and the glycemia (MLD–STZ C57BL/6J mice [1]; NeraCtr, day 16, individual mice) was 104 mg/dL and 92 mg/dL and 112 mg/dL and 106 mg/dL and 96 mg/dL and 88 mg/dL and 118 mg/dL and 93 mg/dL. For the same compound, the glycemia (MLD–STZ C57BL/6J mice [1]; NeraCtr, day 22, individual mice) was 115 mg/dL and 102 mg/dL and 145 mg/dL and 144 mg/dL and 132 mg/dL and 113 mg/dL and 110 mg/dL and 103 mg/dL and 146 mg/dL, the glycemia (MLD–STZ C57BL/6J mice [1]; NeraCtr, day 28, individual mice) was 109 mg/dL and 137 mg/dL and 141 mg/dL and 103 mg/dL and 110 mg/dL and 127 mg/dL and 112 mg/dL and 156 mg/dL and 106 mg/dL and the glycemia (MLD–STZ C57BL/6J mice [1]; NeraCtr, day 36, individual mice) was 156 mg/dL and 132 mg/dL and 145 mg/dL and 146 mg/dL and 111 mg/dL and 114 mg/dL and 120 mg/dL and 109 mg/dL. The AUC glycemia (MLD–STZ C57BL/6J mice [1]; NeraCtr, individual mice) was 4340.5 and 4217 and 4748 and 4310 and 3997 and 3944.5 and 3991 and 4247 and 4144.5, the glycemia (MLD–STZ C57BL/6J mice [1]; NeraSTZ (STZ + neratinib 5 mg/kg i.p. daily), day 0, individual mice) was 112 mg/dL and 125 mg/dL and 148 mg/dL and the AUC glycemia (MLD–STZ C57BL/6J mice [1]; NeraSTZ, Mean) was 7519.28. For the same compound, the glycemia (MLD–STZ C57BL/6J mice [1]; NeraSTZ, day 3, individual mice) was 94 mg/dL and 102 mg/dL and 117 mg/dL, the glycemia (MLD–STZ C57BL/6J mice [1]; NeraSTZ, day 7, individual mice) was 117 mg/dL and 131 mg/dL and 93 mg/dL and the glycemia (MLD–STZ C57BL/6J mice [1]; NeraSTZ, day 9, individual mice) was 179 mg/dL and 138 mg/dL and 134 mg/dL. For the same compound, the glycemia (MLD–STZ C57BL/6J mice [1]; NeraSTZ, day 12, individual mice) was 250 mg/dL and 310 mg/dL and 180 mg/dL, the glycemia (MLD–STZ C57BL/6J mice [1]; NeraSTZ, day 16, individual mice) was 173 mg/dL and 303 mg/dL and the glycemia (MLD–STZ C57BL/6J mice [1]; NeraSTZ, day 22, individual mice) was 209 mg/dL and 344 mg/dL. The glycemia (MLD–STZ C57BL/6J mice [1]; NeraSTZ, day 28, individual mice) was 213 mg/dL and 229 mg/dL, the glycemia (MLD–STZ C57BL/6J mice [1]; NeraSTZ, day 36, individual mice) was 214 mg/dL and 337 mg/dL and 230 mg/dL and the AUC glycemia (MLD–STZ C57BL/6J mice [1]; NeraSTZ, individual mice) was 6636.5 and 8897.5 and 6783.5 and 7009 and 8879.5 and 5194.5 and 8003.5 and 8416 and 7853.5. For the same compound, the “glucose tolerance in STZ mice” value (MLD–STZ C57BL/6J mice [2]; 5 mg/kg i.p. daily) was “significantly improved glucose tolerance”, the ipGTT glucose (MLD–STZ C57BL/6J mice [2]; NeraCtr, 0 min, Mean) was 59.25 and the ipGTT glucose (MLD–STZ C57BL/6J mice [2]; NeraCtr, 0 min after glc, individual mice) was 51 and 48 and 70 and 68. For the same compound, the ipGTT glucose (MLD–STZ C57BL/6J mice [2]; NeraCtr, 15 min, Mean) was 210.75, the ipGTT glucose (MLD–STZ C57BL/6J mice [2]; NeraCtr, 15 min after glc, individual mice) was 211 and 183 and 258 and 191 and the ipGTT glucose (MLD–STZ C57BL/6J mice [2]; NeraCtr, 30 min, Mean) was 316.5. The ipGTT glucose (MLD–STZ C57BL/6J mice [2]; NeraCtr, 30 min after glc, individual mice) was 290 and 203 and 500 and 273, the ipGTT glucose (MLD–STZ C57BL/6J mice [2]; NeraCtr, 60 min, Mean) was 219.25 and the ipGTT glucose (MLD–STZ C57BL/6J mice [2]; NeraCtr, 60 min after glc, individual mice) was 166 and 171 and 373 and 167. The ipGTT glucose (MLD–STZ C57BL/6J mice [2]; NeraCtr, 90 min, Mean) was 134.5, the ipGTT glucose (MLD–STZ C57BL/6J mice [2]; NeraCtr, 90 min after glc, individual mice) was 133 and 136 and 158 and 111 and the ipGTT glucose (MLD–STZ C57BL/6J mice [2]; NeraCtr, 120 min, MEAN) was 96. For the same compound, the ipGTT glucose (MLD–STZ C57BL/6J mice [2]; NeraCtr, 120 min after glc, individual mice) was 91 and 96 and 116 and 81, the “AUC ipGTT” value (MLD–STZ C57BL/6J mice [2]; NeraCtr, individual mice) was 20407.5 and 18322.5 and 14535 and 19072.5 and the ipGTT glucose (MLD–STZ C57BL/6J mice [2]; NeraSTZ, 0 min, mean line) was 61.5. For the same compound, the ipGTT glucose (MLD–STZ C57BL/6J mice [2]; NeraSTZ, 0 min after glc, individual mice) was 67 and 66 and 51 and 57 and 80 and 63 and 62 and 69 and 65 and 44, the ipGTT glucose (MLD–STZ C57BL/6J mice [2]; NeraSTZ, 15 min, mean line) was 285.917 and the ipGTT glucose (MLD–STZ C57BL/6J mice [2]; NeraSTZ, 15 min after glc, individual mice) was 304 and 272 and 259 and 246 and 291 and 315 and 312 and 420 and 217 and 264. For the same compound, the ipGTT glucose (MLD–STZ C57BL/6J mice [2]; NeraSTZ, 30 min, mean line) was 319.5, the ipGTT glucose (MLD–STZ C57BL/6J mice [2]; NeraSTZ, 30 min after glc, individual mice) was 308 and 348 and 303 and 268 and 319 and 424 and 341 and 371 and 315 and 292 and 282 and 263 and the ipGTT glucose (MLD–STZ C57BL/6J mice [2]; NeraSTZ, 60 min, mean line) was 284.417. The ipGTT glucose (MLD–STZ C57BL/6J mice [2]; NeraSTZ, 60 min after glc, individual mice) was 274 and 307 and 368 and 214 and 271 and 308 and 291 and 343 and 321 and 283 and 219, the ipGTT glucose (MLD–STZ C57BL/6J mice [2]; NeraSTZ, 90 min after glc, individual mice) was 181 and 290 and 234 and 159 and 228 and 264 and 184 and 260 and 250 and 205 and 248 and 195 and the ipGTT glucose (MLD–STZ C57BL/6J mice [2]; NeraSTZ, 120 min after glc, individual mice) was 136 and 229 and 175 and 112 and 213 and 180 and 169 and 210 and 211 and 164 and 187. The “AUC ipGTT” value (MLD–STZ C57BL/6J mice [2]; NeraSTZ, individual mice) was 27682.5 and 33750 and 31770 and 23017.5 and 30135 and 34725 and 29565 and 36360 and 31732.5, the β-cell mass ([3]; db/db, day 31) was “increased β-cell mass” and the BCM ([3]; Mean) was 4.571. For the same compound, the BCM ([3]; individual mice) was 1.526 and 8.3226 and 3.26 and 4.639 and 5.1069, the β-cell apoptosis ([4]; db/db, day 31) was “significantly reduced β-cell apoptosis” and the TUNEL%/ mouse ([4]; Mean) was 0.5462%. For the same compound, the TUNEL%/ mouse ([4]; individual mice) was 0.6553% and 0.4112% and 0.66% and 0.4585%, the inhibition at 10 µM (DYRK1A) was 3% and the inhibition at 10 µM (PRKD2) was 71%. The inhibition at 10 µM (SRC) was 73%.
